Experimental data reported in patent US8431596B2 (Cancer Research Technology Limited, priority 2007, dated 2013).

Target: T1, AXL (human catalytic domain) (Homo sapiens, UniProt P30530)
T1 construct: purchased Upstate Ltd. 14-512
T1 sequence (P30530 473-894): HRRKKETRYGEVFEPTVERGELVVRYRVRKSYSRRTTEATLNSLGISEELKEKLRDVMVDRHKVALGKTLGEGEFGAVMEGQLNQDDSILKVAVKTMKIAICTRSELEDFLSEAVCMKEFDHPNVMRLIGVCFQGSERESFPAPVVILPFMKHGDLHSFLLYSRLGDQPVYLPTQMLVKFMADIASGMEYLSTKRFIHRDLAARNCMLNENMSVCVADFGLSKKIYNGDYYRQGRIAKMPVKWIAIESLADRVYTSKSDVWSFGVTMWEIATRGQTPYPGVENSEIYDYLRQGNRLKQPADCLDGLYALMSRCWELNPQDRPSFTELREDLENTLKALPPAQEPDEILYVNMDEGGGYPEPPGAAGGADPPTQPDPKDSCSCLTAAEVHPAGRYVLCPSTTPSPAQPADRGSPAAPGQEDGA
Test: AXL (human catalytic domain) Enzyme Activity Assay (IMAP fluorescence polarisation)
Type: biochemical
In short: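 Recombinant human AXL isoform 1 (aa473-894; final 15 nM) phosphorylated 100 nM fluorescein-CSK-tide with 150 μM ATP (KM) in HEPES pH 7.0/MgCl2/DTT buffer for 60 min at room temperature. IMAP fluorescence polarisation read after overnight binding; IC50 from 10-point 4-parameter logistic fits.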

[1] = first data set, recombinant AXL isoform 1 aa473-894, 150 μM ATP
[2] = further data set (WW-001 through WW-169, XX-001 through XX-469, YY-001 through YY-016, ZZ-001 through ZZ-003), 150 μM ATP

| IC50 [1] [nM] | IC50 [2] [nM] | Compound |
| --- | --- | --- |
| < 1000 | 100 to 1000 | O=C(Nc1nc2cccc(-c3ccsc3)n2n1)C1CC1 [WW-059] |
| – | 1000 to 10000 | NC(=O)Cn1cc(-c2cccc3nc(Nc4ccc(OCCN5CCCC5)cc4)nn23)cn1 [XX-342] |
| < 1000 | ≤ 100 | CN(C)CCOc1cccc(Nc2nc3cccc(-c4ccc5c(c4)OCCO5)n3n2)c1 [XX-074] |
| – | 1000 to 10000 | FC(F)(F)c1ccccc1-c1cccc2nc(Nc3ccc(OCCN4CCCC4)cc3)nn12 [XX-195] |
| – | 100 to 1000 | COc1ccc(CNc2cccc(-c3cccc4nc(Nc5ccc(OCCN6CCCC6)cc5)nn34)c2)cc1 [XX-453] |
| – | 1000 to 10000 | CCN(CC)CCOc1cc(Nc2nc3ccnc(-c4cnn(Cc5ccccc5)c4)n3n2)ccn1 [YY-016] |
| – | 100 to 1000 | Cc1nn(C)c(C)c1-c1cccc(-c2cccc3nc(Nc4ccc(OCCN5CCCC5)cc4)nn23)c1 [XX-170] |
| – | 100 to 1000 | c1cc(-c2ccc3c(c2)OCCO3)n2nc(Nc3ccc(SCCN4CCCC4)cc3)nc2c1 [XX-226] |
| – | ≤ 100 | CCN(CC)CCOc1c(C)cc(Nc2nc3cccc(-c4ccc(OC)cc4)n3n2)cc1C [XX-416] |
| 1000 to 10000 | 1000 to 10000 | COc1ccc(-c2cccc3nc(NC(=O)C4CC4)nn23)cn1 [WW-006, Cyclopropanecarboxylic acid [5-(6-methoxy-pyridin-3-yl)-[1,2,4]triazolo[1,5-a]pyridin-2-yl]-amide] |
| – | 100 to 1000 | CCN(CC)CCC(=O)Nc1ccc(Nc2nc3cccc(-c4ccc5c(c4)OCCO5)n3n2)cc1 [XX-122] |
| – | 1000 to 10000 | Cc1ccccc1-c1cccc2nc(Nc3ccc(OCCN4CCCC4)cc3)nn12 [XX-212] |
| – | 100 to 1000 | COc1ccc(-c2cccc3nc(Nc4ccc(OCCCN5C(=O)c6ccccc6C5=O)cc4)nn23)cc1 [XX-039, 2-(3-{4-[5-(4-methoxy-phenyl)-[1,2,4]triazolo[1,5-a]pyridin-2-ylamino]-phenoxy}-propyl)-isoindole-1,3-dione] |
| – | 100 to 1000 | CS(=O)(=O)c1cccc(-c2cccc3nc(Nc4ccc(OCCN5CCCC5)cc4)nn23)c1 [XX-283] |
| – | 100 to 1000 | Cc1ccc(-c2cccc3nc(Nc4ccc(OCCCN5CCCCC5)cc4)nn23)cc1F [XX-421] |
| 1000 to 10000 | 1000 to 10000 | O=C(Nc1nc2cccc(-c3cccc(F)c3)n2n1)C1CC1 [WW-007, Cyclopropanecarboxylic acid [5-(3-fIuoro-phenyl)-[1,2,4]triazolo[1,5-a]pyridin-2-yl]-amide] |
| < 1000 | 100 to 1000 | COc1ccc(-c2cccc3nc(Nc4cccc(OCCCN)c4)nn23)cc1 [XX-045] |
| – | 1000 to 10000 | O=C(Cc1cccc(Cl)c1)Nc1ccc(-c2cccc3nc(Nc4ccc(OCCN5CCCC5)cc4)nn23)cc1 [XX-222] |
| – | 100 to 1000 | C=Cn1cc(-c2cccc3nc(Nc4ccc(OCCN5CCCC5)cc4)nn23)cn1 [XX-328] |
| 1000 to 10000 | 1000 to 10000 | CN(C)c1ccc(-c2cccc3nc(NC(=O)C4CC4)nn23)cn1 [WW-036] |
| < 1000 | ≤ 100 | COc1ccc(-c2cccc3nc(Nc4ccc(OCCNCc5ccncc5)cc4)nn23)cc1 [XX-032] |
| – | 100 to 1000 | CCN(CC)CCNS(=O)(=O)c1ccc(Nc2nc3cccc(-c4ccc5c(c4)OCCO5)n3n2)cc1 [XX-173] |
| 1000 to 10000 | 1000 to 10000 | O=C(Nc1nc2cccc(NCc3ccccc3Cl)n2n1)C1CC1 [WW-082] |
| – | 100 to 1000 | Cc1ccc(CCn2cc(-c3cccc4nc(Nc5ccc(OCCN6CCCC6)cc5)nn34)cn2)cc1 [XX-350] |
| 1000 to 10000 | 1000 to 10000 | COc1ccc(-c2cccc3nc(NC(=O)C4CC4)nn23)c(OC)c1 [WW-010, Cyclopropanecarboxylic acid [5-(2,4-dimethoxy-phenyl)-[1,2,4]triazolo[1,5-a]pyridin-2-yl]-amide] |

| IC50 [1] [nM] | IC50 [2] [nM] | Compound |
| --- | --- | --- |
| – | 100 to 1000 | c1cc(-c2cncnc2)cc(-c2cccc3nc(Nc4ccc(OCCN5CCCC5)cc4)nn23)c1 [XX-469] |
| – | 1000 to 10000 | c1cc(-c2ccc3[nH]ccc3c2)n2nc(Nc3ccc(OCCN4CCCC4)cc3)nc2c1 [XX-281] |
| – | 100 to 1000 | COc1ccc(-c2cccc3nc(Nc4ccc(OC[C@@H](c5ccccc5)N5CCCC5)cc4)nn23)cc1 [XX-411] |
| < 1000 | 100 to 1000 | COc1ccc(-c2cccc3nc(Nc4ccc(OCCNCCO)cc4)nn23)cc1 [XX-026] |
| – | ≤ 100 | CC[C@@H](COc1ccc(Nc2nc3cccc(-c4ccc(OC)cc4)n3n2)cc1)N1CCCC1 [XX-388] |
| < 1000 | 100 to 1000 | CC(C)Oc1ccc(-c2cccc3nc(Nc4ccc(OCCN5CCCC5)cc4)nn23)cc1 [XX-012] |
| – | 1000 to 10000 | COc1ccccc1COc1cccc(-c2cccc3nc(Nc4ccc(OCCN5CCCC5)cc4)nn23)c1 [XX-338] |
| 1000 to 10000 | 1000 to 10000 | O=C(Nc1nc2cccc(-c3cccc(O)c3)n2n1)C1CC1 [WW-020] |
| – | 100 to 1000 | c1cc(-c2ccc3cc[nH]c3c2)n2nc(Nc3ccc(OCCCN4CCCCC4)cc3)nc2c1 [XX-347] |
| – | 100 to 1000 | CCOc1ccc(-c2nccc3nc(NC(=O)C4CC4)nn23)cc1 [ZZ-002] |
| – | 1000 to 10000 | FC1(F)CCN(CCOc2ccc(Nc3nc4cccc(-c5ccc6c(c5)OCCO6)n4n3)cc2)C1 [XX-158] |
| – | 100 to 1000 | CS(=O)(=O)n1cc(-c2cccc3nc(Nc4ccc(OCCN5CCCC5)cc4)nn23)cn1 [XX-276, [5-(1-Methanesulfonyl-1H-pyrazol-4-yl)-[1,2,4]triazolo[1,5-a]pyridin-2-yl]-[4-(2-pyrrolidin-1-yl-ethoxy)-phenyl]-amine] |
| < 1000 | 100 to 1000 | CCc1nnc(NCCOc2ccc(Nc3nc4cccc(-c5ccc(OC)cc5)n4n3)cc2)[nH]1 [XX-030] |
| – | 1000 to 10000 | CC(C)NC(=O)Cn1cc(-c2cccc3nc(Nc4ccc(OCCN5CCCC5)cc4)nn23)cn1 [XX-434] |
| – | 100 to 1000 | COc1ccc(-c2cccc3nc(Nc4cccc(C(C)=O)c4)nn23)cc1 [XX-008] |
| 1000 to 10000 | 1000 to 10000 | O=C(Nc1nc2cccc(-c3ccc(OC(F)(F)F)cc3)n2n1)C1CC1 [WW-099] |
| – | 1000 to 10000 | c1cc(NC2CCCC2)n2nc(Nc3ccc(OCCN4CCCC4)cc3)nc2c1 [XX-152, N*5*-Cyclopentyl-N*2*-[4-(2-pyrrolidin-1-yl-ethoxy)-phenyl]-[1,2,4]triazolo[1,5-a]pyridine-2,5-diamine] |
| – | ≤ 100 | CN(CCN1CCCC1)c1ccc(Nc2nc3cccc(-c4ccc5c(c4)OCCO5)n3n2)cc1 [XX-154] |
| < 1000 | 100 to 1000 | O=C(Nc1nc2cccc(-c3ccc(N4CCOCC4)cc3)n2n1)C1CC1 [WW-026] |
| – | ≤ 100 | Clc1ccc(Cn2cc(-c3cccc4nc(Nc5ccc(OCCN6CCCC6)cc5)nn34)cn2)cc1 [XX-304] |
| < 1000 | 100 to 1000 | O=C(Nc1nc2cccc(-c3ccc(-c4ccccc4)cc3)n2n1)C1CC1 [WW-063] |
| 1000 to 10000 | 1000 to 10000 | NCC(=O)Nc1ccc(-c2cccc3nc(NC(=O)C4CC4)nn23)cc1 [WW-155, Cyclopropanecarboxylic acid {5-[4-(2-amino-acetylamino)-phenyl]-[1,2,4]triazolo[1,5-a]pyridin-2-yl}-amide] |
| – | 100 to 1000 | CN(C)c1ccc(-c2cccc3nc(Nc4ccc(OCCN5CCCC5)cc4)nn23)cc1 [XX-206] |
| – | 1000 to 10000 | CC(C)(C)OC(=O)Nc1cccc(-c2cccc3nc(Nc4ccc(OCCN5CCCC5)cc4)nn23)c1 [XX-156] |
| 1000 to 10000 | ≤ 100 | COc1ccc(-c2cccc3nc(Nc4ccc(N5CCOCC5)cc4)nn23)cc1 [XX-024] |
